Columns and labels:
Conditions in all cases: 72 h
Calu-3 [1] = assay: drug sensitivity score (DSS) for viability; higher = more toxic; extreme values may be limits of the assay
HepG2 [2] = assay: as above
U2OS [3] = assay: as above
Vero E6 [4] = assay: as above
Caco-2 [5] = assay: as above
Calu-3 [6] = assay: relative viability EC50 (midpoint between 100% and the lowest measured viability); higher = less toxic
HepG2 [7] = assay: as above
U2OS [8] = assay: as above
Calu-3 [9] = assay: cell viability relative to DMSO; higher = less toxic
HepG2 [10] = assay: as above
Caco-2 [11] = assay: as above
U2OS [12] = assay: as above
Vero E6 [13] = assay: as above
Vero E6 [14] = assay: relative viability EC50 (midpoint between 100% and the lowest measured viability); higher = less toxic

SMILES	drug sensitivity score (Calu-3 [1])	drug sensitivity score (HepG2 [2])	drug sensitivity score (U2OS [3])	drug sensitivity score (Vero E6 [4])	drug sensitivity score (Caco-2 [5])	relative viability EC50 (Calu-3 [6]) [µM]	relative viability EC50 (HepG2 [7]) [µM]	relative viability EC50 (U2OS [8]) [µM]	cell viability (Calu-3 [9]; 1 nM) [%]	cell viability (Calu-3 [9]; 10 nM) [%]	cell viability (Calu-3 [9]; 100 nM) [%]	cell viability (Calu-3 [9]; 1000 nM) [%]	cell viability (Calu-3 [9]; 10000 nM) [%]	cell viability (HepG2 [10]; 1 nM) [%]	cell viability (HepG2 [10]; 10 nM) [%]	cell viability (HepG2 [10]; 100 nM) [%]	cell viability (HepG2 [10]; 1000 nM) [%]	cell viability (HepG2 [10]; 10000 nM) [%]	cell viability (Caco-2 [11]; 1 nM) [%]	cell viability (Caco-2 [11]; 10 nM) [%]	cell viability (Caco-2 [11]; 100 nM) [%]	cell viability (Caco-2 [11]; 1000 nM) [%]	cell viability (Caco-2 [11]; 10000 nM) [%]	cell viability (U2OS [12]; 1 nM) [%]	cell viability (U2OS [12]; 10 nM) [%]	cell viability (U2OS [12]; 100 nM) [%]	cell viability (U2OS [12]; 1000 nM) [%]	cell viability (U2OS [12]; 10000 nM) [%]	cell viability (Vero E6 [13]; 1 nM) [%]	cell viability (Vero E6 [13]; 10 nM) [%]	cell viability (Vero E6 [13]; 100 nM) [%]	cell viability (Vero E6 [13]; 1000 nM) [%]	cell viability (Vero E6 [13]; 10000 nM) [%]	relative viability EC50 (Vero E6 [14]) [µM]
O=C(O)c1cc(-c2ccccc2)nc2ccccc12 [cinchophen]	0	0.2	0	0																														
O=C(NC[C@H](O)CO)c1ccncc1Nc1ccc(I)cc1F	14.8	27.2	5.2	13.5	6.9	0.104	0.0178	2.2	96.8	83.1	67.3	51	31.9	102	62.9	35	20.5	15.8	92.8	93.2	81.7	73	61.7	94.6	94.5	91.6	91.8	29.9	98.2	85.4	67.4	52	52.7	
N#Cc1cc2c(OCC(O)CN3CCN(C(c4ccccc4)c4ccccc4)CC3)cccc2[nH]1 (centres undefined)	0	3.2	0	2.5	2.5	> 10	3.3	> 10	105	93.4	95.2	97.8	95.7	83.5	96.1	96.8	101	38.9	106	92.7	112	92.9	68.3	96.3	101	102	100	92.5	101	103	95.5	98.9	53.5	
COc1cccc2c1c(O)c(C(=O)N(C)c1ccc(C(F)(F)F)cc1)c(=O)n2C [tasquinimod]		0		0			> 10							114	104	105	98.9	102											94.9	98.9	96.7	93	93.9	> 10
CO[C@@]12[C@H](COC(N)=O)C3=C(C(=O)C(C)=C(N)C3=O)N1C[C@@H]1N[C@@H]12 [mitomycin-C]	2.6	16.7	2.6	5.5																														
O=C(O)[C@]1(Cc2cccc(Nc3nccs3)n2)CC[C@@H](Oc2cccc(Cl)c2F)CC1 [MK-5108]	2.4	7.8	1.8	1.3	4.6	> 10	0.787		98.6	90.3	89.1	88	76.8	111	106	99.3	62.2	40.2	95.6	100	90.2	76.2	70.7	97.9	100	94.5	95.1	73.3	97.3	100	100	94.6	79.5	> 10
O=C(Nc1ccc(OC(F)(F)F)cc1)c1sccc1NCc1ccnc2ccccc12 [OSI-930]	0.4	2.5	0		1.7	> 10		> 10	91.6	111	93.6	112	78	103	98.5	91.3	89	67	107	102	94.1	97.9	69.3	97.8	101	99.8	104	92.2						
O=C(O)CCC(=O)c1ccc(-c2ccccc2)cc1 [fenbufen]	0	0	0	0																														
Cc1cc(-c2ccc(/N=N/c3ccc4c(S(=O)(=O)O)cc(S(=O)(=O)O)c(N)c4c3O)c(C)c2)ccc1/N=N/c1ccc2c(S(=O)(=O)O)cc(S(=O)(=O)O)c(N)c2c1O [evans-blue]	1	4.9	4.2	4.2	2.8				92.8	101	105	102	71.9	102	89.6	84.2	86.5	52.6	96.7	88.9	104	97.9	51.1	99	98.6	95.1	86.3	53.7	103	106	94	91.6	47.9	1.92
O=C1c2ccccc2-c2c(NCCc3ccccc3)c(=O)[nH]c3cccc1c23 [BRD7389]	2.8	10.1	6.7	7.7	5.3		0.525	0.795	97.4	100	97.6	83.1	72.5	98.8	101	99	45.7	34.8	103	102	97.3	71.6	61.9	97.2	102	95.5	68.5	44.5	102	102	101	69.1	33.5	1.06
Cc1cccc(C(=O)O)c1O [hydroxytoluic-acid]		0	0	0			> 10	> 10						90.6	93.6	87.1	88.5	104						96.8	99.3	102	108	104	108	104	104	105	99	> 10
COc1ccc(OC)c([C@@H](O)CNC(=O)CN)c1 [midodrine]	0	0	0	0		> 10	> 10	> 10	89.1	98.7	95.7	95.6	98.3	109	102	118	99.1	109						99.1	104	100	106	105	102	97.8	106	95.8	108	> 10
CCN(CC)CC#CCOC(=O)C(O)(c1ccccc1)C1CCCCC1 (centres undefined) [oxybutynin]	0	0	0	0																														
CNC(=O)[C@H]1O[C@@H](n2cnc3c(NCc4cccc(I)c4)nc(Cl)nc32)[C@H](O)[C@@H]1O [CF102]	0	0		0		> 10	> 10		99.1	116	93.2	102	98.3	100	102	108	106	99.3											110	99.5	104	98.3	102	> 10
CC(=O)NC[C@H]1CN(c2ccc(N3CCOCC3)c(F)c2)C(=O)O1 [linezolid]		0	0	0																														
S=C(NCc1ccc2c(c1)OCO2)N1CCN(c2ncnc3c2oc2ccccc23)CC1 [amuvatinib]	1.4	7.1	2.5	2.8	2.8	> 10	1.75		98.4	92.7	101	94.1	78.7	100	101	96.2	84	19	95.2	90.6	97.1	84.5	68.3	104	96.6	100	95	65.1	102	104	97.9	90.4	67.6	

Reference: the supplement of paper PMC13380429
